According to patent US9533965B2, “2-arylbenzofuran-7-formamide compounds, preparation method and use thereof” (SHANGHAI INSTITUTE OF MATERIA MEDICA, CHINESE ACADEMY OF …, priority 2012, dated 2017):
Where “and” joins values, the source holds several entries; their conditions need not be identical. Equal entries are not always repeated. Where two headings read alike, the source gives them in different places.

How the values were obtained:
PARP1 = PARP1 (Homo sapiens, UniProt P09874); test: PARP1 enzymatic inhibition at molecular levels (ELISA); conditions: ELISA IC50, PARP1 enzyme, molecular level
Sequence of PARP1 (P09874 whole entry): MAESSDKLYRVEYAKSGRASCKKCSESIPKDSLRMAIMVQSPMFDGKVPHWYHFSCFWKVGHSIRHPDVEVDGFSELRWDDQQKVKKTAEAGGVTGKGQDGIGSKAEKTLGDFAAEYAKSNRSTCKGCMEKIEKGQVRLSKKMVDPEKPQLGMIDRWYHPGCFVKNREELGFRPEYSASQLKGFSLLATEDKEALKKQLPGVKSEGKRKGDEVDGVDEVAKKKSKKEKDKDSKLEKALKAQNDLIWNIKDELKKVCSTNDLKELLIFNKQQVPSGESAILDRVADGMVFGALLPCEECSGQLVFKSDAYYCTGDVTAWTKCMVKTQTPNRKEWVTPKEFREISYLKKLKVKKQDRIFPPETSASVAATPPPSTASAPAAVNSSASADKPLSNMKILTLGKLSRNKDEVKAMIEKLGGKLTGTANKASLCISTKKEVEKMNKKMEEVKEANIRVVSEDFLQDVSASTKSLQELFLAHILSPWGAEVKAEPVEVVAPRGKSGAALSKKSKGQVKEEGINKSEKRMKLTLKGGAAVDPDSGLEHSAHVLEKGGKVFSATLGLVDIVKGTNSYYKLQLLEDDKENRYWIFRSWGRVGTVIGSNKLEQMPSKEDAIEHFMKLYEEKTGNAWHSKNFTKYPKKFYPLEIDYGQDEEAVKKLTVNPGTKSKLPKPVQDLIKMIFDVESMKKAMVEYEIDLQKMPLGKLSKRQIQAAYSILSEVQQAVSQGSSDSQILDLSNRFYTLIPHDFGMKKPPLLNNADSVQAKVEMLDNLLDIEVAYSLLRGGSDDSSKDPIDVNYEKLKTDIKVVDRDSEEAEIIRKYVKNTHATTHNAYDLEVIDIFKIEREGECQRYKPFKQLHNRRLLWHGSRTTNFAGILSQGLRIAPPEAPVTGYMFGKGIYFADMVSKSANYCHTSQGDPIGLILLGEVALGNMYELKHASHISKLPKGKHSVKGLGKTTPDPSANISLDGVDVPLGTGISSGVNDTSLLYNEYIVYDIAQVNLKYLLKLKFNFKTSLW

wild type cell line V79 = test: In vitro cell proliferation inhibition (MTT), V79 cells; format: cell-based, Chinese hamster; conditions: Cricetulus griseus, read-out: V79 cell IC50
[1] = tested on: Chinese hamster lung fibroblast cell line VC8 (BRCA2−/−); test: In vitro cell proliferation inhibition (MTT), VC8 cells; format: cell-based; conditions: read-out: VC8 cell IC50
[2] = compound during phase II clinical trials; cited from earlier work
[3] = Cricetulus griseus, V-C8, 72 h, MTT, 72 h, VC8 (BRCA2−/−)

| IC50 (PARP1) | Structure (SMILES) | IC50 (wild type cell line V79; MTT, 72 h, wild type V79) | IC50 [1, 3] | IC50 ([1]; MTT, 72 h, VC8 (BRCA2−/−)) | IC50 ([1]; Cricetulus griseus, V-C8, 72 h) | oral bioavailability of rats [2] | IC50 (wild type cell line V79; V79, 72 h) |
| --- | --- | --- | --- | --- | --- | --- | --- |
| 104 nM and 101 nM and 207 nM | CN1CCCN(Cc2ccc(-c3cc4cc(F)cc(C(N)=O)c4o3)cc2)CC1 [compound 5i, 5-fluoro-2-{4-[(4-methyl-1-homopiperazino)methyl]phenyl}benzofuran-7-carboxamide] | > 10 µM | – | – | – | – | – |
| 32 nM and 18.8 nM and 25 nM | CC(C)NCc1ccc(-c2cc3cc(F)cc(C(N)=O)c3o2)cc1 [compound 5o, 5-fluoro-2-[4-(isopropylaminomethyl)phenyl]benzofuran-7-carboxamide] | > 10 µM | 1090 nM | 941 nM | – | – | – |
| 23 nM and 27.9 nM and 58 nM | CNCc1ccc(-c2cc3cc(F)cc(C(N)=O)c3o2)nc1 [compound 5d, 5-fluoro-2-{5-[(methylamino)methyl]-2-pyridyl}benzofuran-7-carboxamide] | > 10 µM | 3270 nM | 1740 nM | – | – | – |
| 182 nM and 107 nM and 393 nM | NC(=O)c1cc(F)cc2cc(-c3ccc(CNC4CCNCC4)cc3)oc12 [compound 5l, 5-fluoro-2-{4-[(4-piperidyl)aminomethyl]phenyl}-benzofuran-7-carboxamide] | > 10 µM | 8310 nM | 8220 nM | – | – | – |
| 14.8 nM and 20.8 nM and 74 nM | CNCc1ccc(-c2cc3cc(F)cc(C(N)=O)c3o2)cc1F [compound 5e, 5-fluoro-2-{4-[(methylamino)methyl]-3-fluorophenyl}benzofuran-7-carboxamide] | > 10 µM | 2080 nM | 1510 nM | – | – | – |
| 22 nM and 8.9 nM and 40 nM | CNCc1ccc(-c2cc3cc(F)cc(C(N)=O)c3o2)c(F)c1 [compound 5p, 5-fluoro-2-{4-[(methylamino)methyl]-2-fluorophenyl}benzofuran-7-carboxamide] | > 10 µM | 1360 nM | 1620 nM | – | – | – |
| 49 nM and 9.5 nM and 17 nM | NC(=O)c1cc(F)cc2cc(-c3ccc(CN[C@@H]4CCOC4)cc3)oc12 [compound 5m, (R)-5-fluoro-2-{4-[(3-tetrahydrofurylamino)methyl]phenyl}benzofuran-7-carboxamide] | > 10 µM | 1150 nM | 1180 nM | – | – | – |
| 11.8 ± 8.9 nM | CN(C)Cc1ccc(-c2cc3cc(F)cc(C(N)=O)c3o2)cc1 [compound 5a, 5-fluoro-2-{4-[(dimethylamino)methyl]phenyl}benzofuran-7-carboxamide] | > 10 µM | 750 ± 100 nM | – | – | – | – |
| – | O=C(c1cc(Cc2n[nH]c(=O)c3ccccc23)ccc1F)N1CCN(C(=O)C2CC2)CC1 [AZD2281, Olaparib, reference compound] | – | – | – | 820 ± 330 nM | 11.1% | > 10 µM |
| 37 nM and 34.2 nM and 72 nM | CNCc1ccc(-c2cc3cc(F)cc(C(N)=O)c3o2)cn1 [compound 5c, 5-fluoro-2-{6-[(methylamino)methyl]-3-pyridyl}benzofuran-7-carboxamide] | > 10 µM | – | – | – | – | – |
| 18 nM and 31 nM and 73 nM | NC(=O)c1cc(F)cc2cc(-c3ccc(CNC4CC4)cc3)oc12 [compound 5n, 5-fluoro-2-[4-(cyclopropylaminomethyl)phenyl]benzofuran-7-carboxamide] | > 10 µM | – | – | – | – | – |
| 83 nM and 105 nM and 187 nM | CN1CCN(Cc2ccc(-c3cc4cc(F)cc(C(N)=O)c4o3)cc2)CC1 [compound 5g, 5-fluoro-2-{4-[(4-methyl-1-piperazino)methyl]phenyl}benzofuran-7-carboxamide] | > 10 µM | 2080 nM | 2140 nM | – | – | – |
| 9250 nM | CN(C)Cc1ccc(-c2oc3c(C(N)=O)cc(F)cc3c2Cl)cc1 [compound 7a, 3-chloro-5-fluoro-2-{4-[(dimethylamino)methyl]phenyl}benzofuran-7-carboxamide] | – | – | – | – | – | – |
| 1060 nM and 2060 nM and 1520 nM | NC(=O)c1cc(F)cc2cc(-c3ccc(CN4CCSCC4)cc3)oc12 [compound 5k, 5-fluoro-2-{4-[(thiomorpholino)methyl]phenyl}benzofuran-7-carboxamide] | > 10 µM | > 10000 nM | – | – | – | – |
| – | NC(=O)c1cc(F)cc2cc(-c3ccc(CN4CCCC4)cc3)oc12 [5f, 5-fluoro-2-{4-[(pyrrolidin-1-yl)methyl]phenyl}benzofuran-7-carboxamide] | > 10 µM | 3360 nM | 2620 nM | – | – | – |
| – | NC(=O)c1cc(F)cc2cc(-c3ccc(CN4CCOCC4)cc3)oc12 [compound 5j, 5-fluoro-2-{4-[(1-morpholinyl)methyl]phenyl}benzofuran-7-carboxamide] | > 10 µM | – | – | – | – | – |
| – | NC(=O)c1cc(F)cc2cc(-c3ccc(CN4CCCCC4)cc3)oc12 [compound 5h, 5-fluoro-2-{4-[(piperidin-1-yl)methyl]phenyl}benzofuran-7-carboxamide] | > 10 µM | 2600 nM | 2010 nM | – | – | – |
